Target: LRRK2 (Homo sapiens (Human), UniProt Q5S007, G2019S)
Assay: In Vitro LRRK2 LabChip Assay
Assay type: biochemical
Outline: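 Phosphorylated and unphosphorylated peptides were separated by capillary electrophoresis and quantified by fluorescence. Ki came from a tight-binding equation, given in μM.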

Sequence of LRRK2 (Q5S007 970-2527 G2019S limits assumed): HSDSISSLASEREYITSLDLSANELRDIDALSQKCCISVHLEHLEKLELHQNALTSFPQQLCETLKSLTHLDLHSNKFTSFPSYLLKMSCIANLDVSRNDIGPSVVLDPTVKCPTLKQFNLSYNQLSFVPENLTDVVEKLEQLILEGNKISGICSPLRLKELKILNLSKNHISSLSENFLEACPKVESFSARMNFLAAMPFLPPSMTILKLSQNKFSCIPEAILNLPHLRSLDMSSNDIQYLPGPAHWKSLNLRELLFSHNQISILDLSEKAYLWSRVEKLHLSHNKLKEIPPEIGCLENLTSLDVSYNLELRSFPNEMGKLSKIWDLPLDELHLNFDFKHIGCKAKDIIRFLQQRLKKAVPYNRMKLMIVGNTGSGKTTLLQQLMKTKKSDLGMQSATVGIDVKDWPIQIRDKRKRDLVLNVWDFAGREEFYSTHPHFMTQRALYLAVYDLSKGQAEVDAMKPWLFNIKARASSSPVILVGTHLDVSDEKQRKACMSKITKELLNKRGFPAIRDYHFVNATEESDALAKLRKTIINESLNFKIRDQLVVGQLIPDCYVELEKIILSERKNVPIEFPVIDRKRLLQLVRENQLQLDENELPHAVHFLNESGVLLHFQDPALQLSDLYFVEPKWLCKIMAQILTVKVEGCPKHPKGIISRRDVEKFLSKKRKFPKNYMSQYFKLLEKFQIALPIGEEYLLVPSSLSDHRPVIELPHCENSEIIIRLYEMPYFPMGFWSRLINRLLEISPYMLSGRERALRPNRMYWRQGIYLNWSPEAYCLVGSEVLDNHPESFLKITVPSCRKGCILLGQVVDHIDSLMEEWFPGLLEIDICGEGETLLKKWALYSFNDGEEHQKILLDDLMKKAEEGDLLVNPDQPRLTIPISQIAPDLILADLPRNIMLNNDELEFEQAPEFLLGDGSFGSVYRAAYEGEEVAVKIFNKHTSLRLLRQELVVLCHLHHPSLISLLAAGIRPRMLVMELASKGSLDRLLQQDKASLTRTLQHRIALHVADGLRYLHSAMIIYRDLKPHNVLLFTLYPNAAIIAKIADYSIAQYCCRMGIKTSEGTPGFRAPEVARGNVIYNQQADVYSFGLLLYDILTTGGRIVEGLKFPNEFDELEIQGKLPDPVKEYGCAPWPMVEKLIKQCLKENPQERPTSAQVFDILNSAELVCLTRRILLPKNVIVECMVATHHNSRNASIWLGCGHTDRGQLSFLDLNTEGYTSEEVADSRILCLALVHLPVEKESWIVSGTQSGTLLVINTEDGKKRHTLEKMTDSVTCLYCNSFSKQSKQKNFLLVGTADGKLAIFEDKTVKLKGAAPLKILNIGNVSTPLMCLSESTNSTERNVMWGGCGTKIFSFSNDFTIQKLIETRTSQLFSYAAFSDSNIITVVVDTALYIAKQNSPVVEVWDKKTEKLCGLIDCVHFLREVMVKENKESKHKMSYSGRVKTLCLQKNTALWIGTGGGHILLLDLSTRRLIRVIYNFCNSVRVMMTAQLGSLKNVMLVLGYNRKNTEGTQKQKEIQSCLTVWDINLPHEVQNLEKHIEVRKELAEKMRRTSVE

Ki (Table 4) [nM]	SMILES	further results
8	CNc1nc(Nc2cc(F)c(C(=O)N3C[C@@H](C)O[C@@H](C)C3)cc2OC)ncc1C(F)(F)F [Example 249, ((2S,6R)-2,6-dimethylmorpholino) (2-fluoro-5-methoxy-4-(4-(methylamino)-5-(trifluoromethyl)pyrimidin-2-ylamino)phenyl) methanone]	
	CNc1nc(Nc2ccc(C(=O)NC3CCC(F)(F)CC3)cc2OC)ncc1C(F)(F)F [Example 283, N-(4,4-Difluoro-cyclohexyl)-3-methoxy-4-(4-methylamino-5-trifluoromethyl-pyrimidin-2-ylamino)-benzamide]	Ki (Table 6): 1.1 nM
26.4	CNc1nc(Nc2ccc(C(=O)N3CCC3)cc2OC)ncc1C#N [Example 212, 2-[4-(Azetidine-1-carbonyl)-2-methoxy-phenylamino]-4-methylamino-pyrimidine-5-carbonitrile]	
3.4	CCNc1nc(Nc2cc(OC)c(C(=O)N3CCOCC3)cc2Cl)ncc1C(F)(F)F [Example 147, [5-Chloro-4-(4-ethylamino-5-trifluoromethyl-pyrimidin-2-ylamino)-2-methoxy-phenyl]-morpholin-4-yl-methanone]	
	CCNc1nc(Nc2cc(F)c(C(=O)N3CCOCC3)cc2OCC)ncc1C(F)(F)F [Example 309, [5-Ethoxy-4-(4-ethylamino-5-trifluoromethyl-pyrimidin-2-ylamino)-2-fluoro-phenyl]-morpholin-4-yl-methanone]	Ki (Table 6): 2.1 nM
9.6	COc1cc(C(=O)N2CCOCC2)ccc1Nc1ncc(Cl)c(NCC(C)OC)n1 (stereo not shown) [Example 230, {4-[5-Chloro-4-(2-methoxy-propylamino)-pyrimidin-2-ylamino]-3-methoxy-phenyl}-morpholin-4-yl-methanone]	
3.6	CNc1nc(Nc2ccc(C(=O)N3CCN(S(C)(=O)=O)CC3)cc2OC)ncc1Cl [Example 33, [4-(5-Chloro-4-methylamino-pyrimidin-2-ylamino)-3-methoxy-phenyl]-(4-methanesulfonyl-piperazin-1-yl)-methanone]	
8.1	CNc1nc(Nc2ccc(C(=O)N3CCC(F)(F)C3)cc2OC)ncc1C#N [Example 208, 2-[4-(3,3-Difluoropyrrolidine-1-carbonyl)-2-methoxy-phenylamino]-4-methylamino-pyrimidine-5-carbonitrile]	
2.8	CNc1nc(Nc2ccc(C(=O)N3CCNCC3)cc2OC)ncc1Cl [Example 47, [4-(5-Chloro-4-methylamino-pyrimidin-2-ylamino)-3-methoxy-phenyl]-piperazin-1-yl-methanone]	
	CNc1nc(Nc2ccc(C(=O)N3CCN(CC(F)(F)F)CC3)cc2OC)ncc1C(F)(F)F [Example 279, [3-Methoxy-4-(4-methylamino-5-trifluoromethyl-pyrimidin-2-ylamino)-phenyl]-[4-(2,2,2-trifluoro-ethyl)-piperazin-1-yl]-methanone]	Ki (Table 6): 2 nM
9.4	CNc1nc(Nc2ccc(C(=O)N3CCOCC3)cc2OC(C)C)ncc1C(F)(F)F [Example 215, [3-Isopropoxy-4-(4-methylamino-5-trifluoromethyl-pyrimidin-2-ylamino)-phenyl]-morpholin-4-yl-methanone]	
3.5	CNc1nc(Nc2ccc(C(=O)N3CCN4CCCCC4C3)cc2OC)ncc1Cl (stereo not shown) [Example 8, [4-(5-Chloro-4-methylamino-pyrimidin-2-ylamino)-3-methoxy-phenyl]-(octahydro-pyrido[1,2-a]pyrazin-2-yl)-methanone]	
4.1	CNc1nc(Nc2ccc(C(=O)N3CCC(C#N)CC3)cc2OC)ncc1Br [Example 73, l-[4-(5-Bromo-4-methylamino-pyrimidin-2-ylamino)-3-methoxy-benzoyl]-piperidine-4-carbonitrile]	
6.8	CNc1nc(Nc2ccc(C(=O)N(C)C(C)C)cc2OC)ncc1C#N [Example 213, 4-(5-Cyano-4-methylamino-pyrimidin-2-ylamino)-N-isopropyl-3-methoxy-N-methyl-benzamide]	
2.4	CNc1nc(Nc2ccc(C(=O)N3CCC(OC)CC3)cc2OC)ncc1Br [Example 76, [4-(5-Bromo-4-methylamino-pyrimidin-2-ylamino)-3-methoxy-phenyl]-(4-methoxy-piperidin-1-yl)-methanone]	
2.5	CNc1nc(Nc2ccc(C(=O)N3CCCCC3)cc2OC)ncc1Cl [Example 15, [4-(5-Chloro-4-methylamino-pyrimidin-2-ylamino)-3-methoxy-phenyl]-piperidin-1-yl-methanone]	
	CNc1nc(Nc2cc(F)c(C(=O)N(C)CCOC)cc2OC)ncc1C(F)(F)F [Example 303, 2-Fluoro-5-methoxy-N-(2-methoxy-ethyl)-N-methyl-4-(4-methylamino-5-trifluoromethyl-pyrimidin-2-ylamino)-benzamide]	Ki (Table 6): 5.9 nM
2.1	COc1cc(C(=O)N2CCOCC2)ccc1Nc1ncc(I)c(OC)n1 [Example 101, [4-(5-Iodo-4-methoxy-pyrimidin-2-ylamino)-3-methoxy-phenyl]-morpholin-4-yl-methanone]	
8.6	CNc1nc(Nc2cc(OC)c(C(=O)N3CCC(O)C3)cc2Cl)ncc1Cl (stereo not shown) [Example 152, [5-Chloro-4-(5-chloro-4-methylamino-pyrimidin-2-ylamino)-2-methoxy-phenyl]-(3-hydroxy-pyrrolidin-1-yl)-methanone]	
6	CNc1nc(Nc2ccc(C(=O)N3CC[C@H](F)C3)cc2OC)ncc1C#N [Example 196, 2-[4-((S)-3-Fluoro-pyrrolidine-1-carbonyl)-2-methoxy-phenylamino]-4-methylamino-pyrimidine-5-carbonitrile]	
6	CNc1nc(Nc2ccc(C(=O)N3CCOCC3)cc2Cl)ncc1Cl [Example 115, [3-Chloro-4-(5-chloro-4-methylamino-pyrimidin-2-ylamino)-phenyl]-morpholin-4-yl-methanone]	
	CCNc1nc(Nc2cc(F)c(C(=O)N3CCOCC3)cc2OC)ncc1C(F)(F)F [Example 256, [4-(4-Ethylamino-5-trifluoromethyl-pyrimidin-2-ylamino)-2-fluoro-5-methoxy-phenyl]-morpholin-4-yl-methanone]	Ki (Table 5): 2 nM
4.5	CCNc1nc(Nc2ccc(C(=O)N3CCOCC3)cc2OC(C)C)ncc1C(F)(F)F [Example 252, (4-(4-(ethylamino)-5-(trifluoromethyl)pyrimidin-2-ylamino)-3-isopropoxyphenyl) (morpholino) methanone]	
	CNc1nc(Nc2cc(OC)c(C(=O)N3CCOCC3)cc2Cl)ncc1Br [Example 288, [4-(5-Bromo-4-methylamino-pyrimidin-2-ylamino)-5-chloro-2-methoxy-phenyl]-morpholin-4-yl-methanone]	Ki (Table 6): 2.6 nM
2.7	CNc1nc(Nc2ccc(C(=O)N3CCOCC3)cc2OC)ncc1C(F)(F)F [Example 50, [3-Methoxy-4-(4-methylamino-5-trifluoromethyl-pyrimidin-2-ylamino)-phenyl]-morpholin-4-yl-methanone]	
	CNc1nc(Nc2ccc(C(=O)N3CCOCC3)cc2Cl)ncc1C(F)(F)F [Example 291, [3-Chloro-4-(4-methylamino-5-trifluoromethyl-pyrimidin-2-ylamino)-phenyl]-morpholin-4-yl-methanone]	Ki (Table 6): 17 nM
5.2	CNc1nc(Nc2cc(OC)c(C(=O)NC3CC3)cc2Cl)ncc1C(F)(F)F [Example 154, 5-Chloro-N-cyclopropyl-2-methoxy-4-(4-methylamino-5-trifluoromethyl-pyrimidin-2-ylamino)-benzamide]	

SMILES	Ki (Table 4) [nM]	further results
COCCOc1nc(Nc2ccc(C(=O)N3CCOCC3)cc2OC2CCC2)ncc1Cl [Example 187, {4-[5-Chloro-4-(2-methoxy-ethoxy)-pyrimidin-2-ylamino]-3-cyclobutoxy-phenyl}-morpholin-4-yl-methanone]	14.3	
